ChEMBL document CHEMBL3734710 (Eur J Med Chem, 2015)

Assays:
in vivo [1] = details: rat, po, 10 mg/kg
in vivo [2] = details: rat, iv, 5 mg/kg
in vivo [3] = details: rat, iv, 5 mg/kg; remark: listed apart in the source
in vivo [4] = details: rat, po, 10 mg/kg; remark: listed apart in the source
in vivo [5] = details: rat, po, 10 mg/kg; remark: listed apart in the source
in vivo [6] = details: rat, iv, 5 mg/kg; remark: listed apart in the source
in vivo [7] = details: rat, po, 10 mg/kg; remark: listed apart in the source
in vivo [8] = details: rat, iv
in vivo [9] = details: rat, iv; remark: listed apart in the source
in vivo [10] = details: rat, iv; remark: listed apart in the source

SMILES | Tmax (in vivo [1]) | clearance (in vivo [2]) | half-life (in vivo [3]) | bioavailability (in vivo [4]) | Cmax (in vivo [5]) | Vd (in vivo [6]) | AUC(0-inf) (in vivo [7]) | half-life (in vivo [8]) | Vd (in vivo [9]) | clearance (in vivo [10])
CC1(C)c2cc(C3CCN(CC4CCOCC4)CC3)ccc2C(=O)c2c1[nH]c1cc(C#N)ccc21 | 4.5 h | 14.2 mL/min/kg | 15.8 h | 67.1% | 351 ng/mL | 17.4 L/kg | 7290 ng·h/mL |  |  | 
CC1(C)c2cc(C3CCN(CC4(O)CCOCC4)CC3)ccc2C(=O)c2c1[nH]c1cc(C#N)ccc21 | 3.3 h | 38 mL/min/kg | 5.41 h | 42.4% | 192 ng/mL | 12.9 L/kg | 1940 ng·h/mL |  |  | 
CCc1cc2c(cc1-c1cnn(CC(=O)N(C)C)c1)C(C)(C)c1[nH]c3cc(C#N)ccc3c1C2=O | 3.3 h |  |  | 7.1% | 218 ng/mL |  | 1350 ng·h/mL | 3.77 h | 1.17 L/kg | 10.8 mL/min/kg
